According to PubChem BioAssay (NCI):
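Results reflect a 48-hour exposure of cells in 96-well plates to compound at five concentrations. TGI is the concentration that stops growth completely.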

Assays:
Assay in all cases: NCI tumour cell line growth inhibition, 48 h
786-0 renal = test system: 786-0 renal
A549 NSCLC = test system: A549 NSCLC
CCRF-CEM leukemia = test system: CCRF-CEM leukemia
EKVX NSCLC = test system: EKVX NSCLC
HCC-2998 colon = test system: HCC-2998 colon
HCT-116 colon = test system: HCT-116 colon
HL-60(TB) leukemia = test system: HL-60(TB) leukemia
HOP-62 NSCLC = test system: HOP-62 NSCLC
HS 578T breast = test system: HS 578T breast
HT29 colon = test system: HT29 colon
K-562 leukemia = test system: K-562 leukemia
KM12 colon = test system: KM12 colon
M14 melanoma = test system: M14 melanoma
MCF7 breast = test system: MCF7 breast
MDA-MB-231 breast = test system: MDA-MB-231 breast
MDA-MB-435 = test system: MDA-MB-435
MDA-N = test system: MDA-N
MOLT-4 leukemia = test system: MOLT-4 leukemia
NCI-H460 lung = test system: NCI-H460 lung
NCI-H522 lung = test system: NCI-H522 lung
NCI/ADR-RES ovarian = test system: NCI/ADR-RES ovarian
OVCAR-4 ovarian = test system: OVCAR-4 ovarian
OVCAR-5 ovarian = test system: OVCAR-5 ovarian
OVCAR-8 ovarian = test system: OVCAR-8 ovarian
PC-3 prostate = test system: PC-3 prostate
RPMI-8226 leukemia = test system: RPMI-8226 leukemia
SF-268 CNS = test system: SF-268 CNS
SF-295 CNS = test system: SF-295 CNS
SF-539 CNS = test system: SF-539 CNS
SK-MEL-28 melanoma = test system: SK-MEL-28 melanoma
SK-MEL-5 melanoma = test system: SK-MEL-5 melanoma
SK-OV-3 ovarian = test system: SK-OV-3 ovarian
SN12C renal = test system: SN12C renal
SNB-19 CNS = test system: SNB-19 CNS
SNB-75 CNS = test system: SNB-75 CNS
SR leukemia = test system: SR leukemia
SW-620 colon = test system: SW-620 colon
T-47D breast = test system: T-47D breast
TK-10 renal = test system: TK-10 renal
U251 CNS = test system: U251 CNS
UACC-257 melanoma = test system: UACC-257 melanoma
UO-31 renal = test system: UO-31 renal
A498 renal = test system: A498 renal
ACHN renal = test system: ACHN renal
BT-549 breast = test system: BT-549 breast
DU-145 prostate = test system: DU-145 prostate
HCT-15 colon = test system: HCT-15 colon
LOX IMVI melanoma = test system: LOX IMVI melanoma
MALME-3M melanoma = test system: MALME-3M melanoma
NCI-H226 lung = test system: NCI-H226 lung
NCI-H23 lung = test system: NCI-H23 lung
OVCAR-3 ovarian = test system: OVCAR-3 ovarian
RXF 393 renal = test system: RXF 393 renal
SK-MEL-2 melanoma = test system: SK-MEL-2 melanoma
UACC-62 melanoma = test system: UACC-62 melanoma
CAKI-1 renal = test system: CAKI-1 renal
COLO 205 colon = test system: COLO 205 colon
HOP-92 NSCLC = test system: HOP-92 NSCLC
IGROV1 ovarian = test system: IGROV1 ovarian

O=C(C1C(c2ccccc2)N1C(c1ccccc1)c1ccccc1)C1C(c2ccccc2)N1C(c1ccccc1)c1ccccc1 (stereo not drawn)
TGI (786-0 renal): 48.2 µM
TGI (A549 NSCLC): > 100 µM
TGI (CCRF-CEM leukemia): 22.9 µM
TGI (EKVX NSCLC): > 100 µM
TGI (HCC-2998 colon): 37.8 µM
TGI (HCT-116 colon): 15.8 µM
TGI (HL-60(TB) leukemia): 12 µM
TGI (HOP-62 NSCLC): > 100 µM
TGI (HS 578T breast): 46.3 µM
TGI (HT29 colon): 30.2 µM
TGI (K-562 leukemia): 20.3 µM
TGI (KM12 colon): 72.8 µM
TGI (M14 melanoma): > 100 µM
TGI (MCF7 breast): 22.4 µM
TGI (MDA-MB-231 breast): 45.4 µM
TGI (MDA-MB-435): > 100 µM
TGI (MDA-N): > 100 µM
TGI (MOLT-4 leukemia): 33.4 µM
TGI (NCI-H460 lung): 29.5 µM
TGI (NCI-H522 lung): 23.7 µM
TGI (NCI/ADR-RES ovarian): > 100 µM
TGI (OVCAR-4 ovarian): > 100 µM
TGI (OVCAR-5 ovarian): 81.2 µM
TGI (OVCAR-8 ovarian): > 100 µM
TGI (PC-3 prostate): 53.7 µM
TGI (RPMI-8226 leukemia): 10.9 µM
TGI (SF-268 CNS): 67.5 µM
TGI (SF-295 CNS): > 100 µM
TGI (SF-539 CNS): 43.4 µM
TGI (SK-MEL-28 melanoma): 36.1 µM
TGI (SK-MEL-5 melanoma): 49.8 µM
TGI (SK-OV-3 ovarian): > 100 µM
TGI (SN12C renal): 46.9 µM
TGI (SNB-19 CNS): > 100 µM
TGI (SNB-75 CNS): > 100 µM
TGI (SR leukemia): 16.6 µM
TGI (SW-620 colon): 37.2 µM
TGI (T-47D breast): > 100 µM
TGI (TK-10 renal): 60.9 µM
TGI (U251 CNS): 71.8 µM
TGI (UACC-257 melanoma): 40.3 µM
TGI (UO-31 renal): 38.4 µM

CCC(=O)NC(Nc1ccc(O)cc1)(C(F)(F)F)C(F)(F)F
TGI (A498 renal): > 100 µM
TGI (ACHN renal): > 100 µM
TGI (BT-549 breast): > 100 µM
TGI (CCRF-CEM leukemia): > 100 µM
TGI (DU-145 prostate): > 100 µM
TGI (EKVX NSCLC): > 100 µM
TGI (HCC-2998 colon): > 100 µM
TGI (HCT-116 colon): > 100 µM
TGI (HCT-15 colon): > 100 µM
TGI (HL-60(TB) leukemia): 46.5 µM
TGI (HOP-62 NSCLC): > 100 µM
TGI (HS 578T breast): > 100 µM
TGI (HT29 colon): > 100 µM
TGI (K-562 leukemia): > 100 µM
TGI (KM12 colon): > 100 µM
TGI (LOX IMVI melanoma): > 100 µM
TGI (M14 melanoma): > 100 µM
TGI (MALME-3M melanoma): > 100 µM
TGI (MCF7 breast): > 100 µM
TGI (MDA-MB-231 breast): > 100 µM
TGI (MDA-MB-435): 65.7 µM
TGI (MDA-N): 35.3 µM
TGI (MOLT-4 leukemia): > 100 µM
TGI (NCI-H226 lung): > 100 µM
TGI (NCI-H23 lung): > 100 µM
TGI (NCI-H460 lung): > 100 µM
TGI (NCI-H522 lung): 66.6 µM
TGI (OVCAR-3 ovarian): > 100 µM
TGI (OVCAR-5 ovarian): > 100 µM
TGI (RPMI-8226 leukemia): > 100 µM
TGI (RXF 393 renal): > 100 µM
TGI (SF-268 CNS): > 100 µM
TGI (SF-539 CNS): > 100 µM
TGI (SK-MEL-2 melanoma): > 100 µM
TGI (SK-MEL-28 melanoma): > 100 µM
TGI (SK-OV-3 ovarian): > 100 µM
TGI (SN12C renal): > 100 µM
TGI (SNB-19 CNS): > 100 µM
TGI (SNB-75 CNS): > 100 µM
TGI (SR leukemia): > 100 µM
TGI (T-47D breast): > 100 µM
TGI (TK-10 renal): > 100 µM
TGI (U251 CNS): > 100 µM
TGI (UACC-257 melanoma): > 100 µM
TGI (UACC-62 melanoma): > 100 µM
TGI (UO-31 renal): > 100 µM

CCOC(=O)[C@@H]1ON2O[C@H](OC3CCCC3(c3ccccc3)c3ccccc3)C[C@H]3OC(=O)[C@@H]1C32 (stereo partly drawn)
TGI (786-0 renal): > 100 µM
TGI (A498 renal): 95.9 µM
TGI (A549 NSCLC): 76.6 µM
TGI (ACHN renal): > 100 µM
TGI (CAKI-1 renal): 46 µM
TGI (CCRF-CEM leukemia): 78.3 µM
TGI (COLO 205 colon): > 100 µM
TGI (DU-145 prostate): > 100 µM
TGI (EKVX NSCLC): > 100 µM
TGI (HCC-2998 colon): > 100 µM
TGI (HCT-116 colon): > 100 µM
TGI (HCT-15 colon): > 100 µM
TGI (HL-60(TB) leukemia): 59.1 µM
TGI (HOP-62 NSCLC): > 100 µM
TGI (HOP-92 NSCLC): > 100 µM
TGI (HS 578T breast): > 100 µM
TGI (HT29 colon): > 100 µM
TGI (IGROV1 ovarian): > 100 µM
TGI (K-562 leukemia): > 100 µM
TGI (KM12 colon): 85.4 µM
TGI (LOX IMVI melanoma): 86.7 µM
TGI (M14 melanoma): > 100 µM
TGI (MCF7 breast): 91.4 µM
TGI (MDA-MB-231 breast): > 100 µM
TGI (MDA-MB-435): 97.9 µM
TGI (MDA-N): > 100 µM
TGI (MOLT-4 leukemia): > 100 µM
TGI (NCI-H226 lung): > 100 µM
TGI (NCI-H23 lung): 65.8 µM
TGI (NCI-H460 lung): > 100 µM
TGI (NCI-H522 lung): > 100 µM
TGI (NCI/ADR-RES ovarian): > 100 µM
TGI (OVCAR-3 ovarian): > 100 µM
TGI (OVCAR-5 ovarian): > 100 µM
TGI (OVCAR-8 ovarian): > 100 µM
TGI (RPMI-8226 leukemia): > 100 µM
TGI (RXF 393 renal): 36.5 µM
TGI (SF-268 CNS): > 100 µM
TGI (SF-295 CNS): > 100 µM
TGI (SF-539 CNS): > 100 µM
TGI (SK-MEL-5 melanoma): > 100 µM
TGI (SK-OV-3 ovarian): > 100 µM
TGI (SN12C renal): > 100 µM
TGI (SNB-75 CNS): > 100 µM
TGI (SR leukemia): 99.2 µM
TGI (SW-620 colon): > 100 µM
TGI (T-47D breast): 80 µM
TGI (TK-10 renal): > 100 µM
TGI (U251 CNS): > 100 µM
TGI (UACC-257 melanoma): > 100 µM
TGI (UACC-62 melanoma): > 100 µM
TGI (UO-31 renal): > 100 µM

CSC1=N/C(=C\c2ccco2)C(=O)N1CN1CCCCC1
TGI (786-0 renal): > 100 µM
TGI (A498 renal): > 100 µM
TGI (A549 NSCLC): > 100 µM
TGI (ACHN renal): > 100 µM
TGI (COLO 205 colon): > 100 µM
TGI (DU-145 prostate): > 100 µM
TGI (EKVX NSCLC): > 100 µM
TGI (HCT-116 colon): > 100 µM
TGI (HCT-15 colon): > 100 µM
TGI (HOP-62 NSCLC): > 100 µM
TGI (HOP-92 NSCLC): 87.2 µM
TGI (HS 578T breast): > 100 µM
TGI (HT29 colon): > 100 µM
TGI (IGROV1 ovarian): > 100 µM
TGI (K-562 leukemia): > 100 µM
TGI (KM12 colon): > 100 µM
TGI (LOX IMVI melanoma): > 100 µM
TGI (M14 melanoma): > 100 µM
TGI (MALME-3M melanoma): > 100 µM
TGI (MCF7 breast): > 100 µM
TGI (MDA-MB-231 breast): > 100 µM
TGI (MDA-MB-435): > 100 µM
TGI (MDA-N): > 100 µM
TGI (MOLT-4 leukemia): > 100 µM
TGI (NCI-H226 lung): > 100 µM
TGI (NCI-H23 lung): > 100 µM
TGI (NCI-H522 lung): > 100 µM
TGI (NCI/ADR-RES ovarian): > 100 µM
TGI (OVCAR-3 ovarian): > 100 µM
TGI (OVCAR-5 ovarian): > 100 µM
TGI (OVCAR-8 ovarian): > 100 µM
TGI (PC-3 prostate): > 100 µM
TGI (RPMI-8226 leukemia): > 100 µM
TGI (SF-268 CNS): > 100 µM
TGI (SF-295 CNS): > 100 µM
TGI (SK-MEL-2 melanoma): > 100 µM
TGI (SK-MEL-28 melanoma): > 100 µM
TGI (SK-MEL-5 melanoma): > 100 µM
TGI (SK-OV-3 ovarian): > 100 µM
TGI (SN12C renal): > 100 µM
TGI (SNB-19 CNS): > 100 µM
TGI (SNB-75 CNS): > 100 µM
TGI (SR leukemia): > 100 µM
TGI (SW-620 colon): > 100 µM
TGI (TK-10 renal): > 100 µM
TGI (U251 CNS): > 100 µM
TGI (UACC-62 melanoma): > 100 µM
TGI (UO-31 renal): > 100 µM
